# Experimental data published in paper PMC6021502, “Cannabigerol Action at Cannabinoid CB1 and CB2 Receptors and at CB1–CB2 Heteroreceptor Complexes” (Frontiers in Pharmacology, 2018).
# “Also recorded” adds a separate entry of the source. Like-named read-outs stand apart in the source and are kept apart here.
# Columns and labels:
# [1] = test system: PPARγ transcriptional activity; parameters: method as in Granja et al., 2012; Nadal et al., 2017; details: high concentrations, 10–25 μM range; ref Granja et al., 2012; Nadal et al., 2017; cited from earlier work
# AEA cell uptake = test system: AEA cell uptake; parameters: method as in De Petrocellis et al., 2011; details: ref De Petrocellis et al., 2011; read-out: Ki, inhibitor of AEA cell uptake; cited from earlier work
# CB1R [2] = details: cited from earlier work
# human CB1 receptor = target: T1, human CB1 receptor (Homo sapiens, UniProt P21554); assay: biochemical; type: binding
# T1 construct: expressed in transfected cells; membranes
# [3] = test system: T2, CB1R and CB2R (CB1–CB2 heteroreceptor complexes); assay: ERK1/2 phosphorylation in HEK-293T cells co-expressing both receptors; type: cell-based, human
# T2 construct: expressed in transfected cells; host or cells: HEK-293T, transient co-transfection (PEI)
# Protocol: (§1) HEK-293T cells were grown in DMEM medium (Gibco, Paisley, Scotland, United Kingdom) supplemented with 2 mM L-glutamine, 100 U/mL penicillin/streptomycin, MEM Non-Essential Amino Acids Solution (1/100) and 5% (v/v) heat inactivated Foetal Bovine Serum (FBS) (Invitrogen, Paisley, Scotland, United Kingdom). […] Cells were transiently transfected with the PEI (Polyethylenimine, Sigma, St. Louis, MO, United States) method as previously described ([Medrano et al., 2017]; [Navarro et al., 2018b]) and used for functional assays 48 h later (unless otherwise stated).
# (§2) To determine ERK1/2 phosphorylation, 50,000 HEK-293T cells/well were plated in transparent Deltalab 96-well microplates and kept at the incubator for 24 h. 2 to 4 h before the experiment, the medium was substituted by serum-starved DMEM medium. Then, cells were pre-treated at 25°C for 10 min with vehicle or CBG in serum-starved DMEM medium and stimulated for an additional 7 min with the specific agonists. Cells were then washed twice with cold PBS before addition of lysis buffer (20 min treatment). 10 μL of each supernatant were placed in white ProxiPlate 384-well microplates and ERK 1/2 phosphorylation was determined using AlphaScreen®SureFire® kit (Perkin Elmer) following the instructions of the supplier and using an EnSpire® Multimode Plate Reader (PerkinElmer, Waltham, MA, United States).
# macrophages = test system: macrophages; parameters: method as in Borrelli et al., 2013; details: ref Borrelli et al., 2013; cited from earlier work
# CB2R [4] = test system: T3, CB2R; assay: Overall signalling profile (cAMP, MAPK, β-arrestin, DMR) in HEK-293T cells; type: cell-based, human; details: HEK-293T cells expressing CB2R
# T3 construct: expressed in transfected cells; host or cells: HEK-293T, transient transfection (PEI)
# Protocol: as §1
# (§3) Signaling experiments have been performed as previously described ([Navarro et al., 2010], [2016], [2018b]; [Hinz et al., 2018]). […] Readings were performed after 15 min incubation at 25°C. […] Fluorescence at 665 nm was analyzed in a PHERAstar Flagship microplate reader equipped with an HTRF optical module (BMG Lab Technologies, Offenburg, Germany).
# (§4) To determine ERK1/2 phosphorylation, 50,000 HEK-293T cells/well were plated in transparent Deltalab 96-well microplates and kept at the incubator for 24 h. […] 10 μL of each supernatant were placed in white ProxiPlate 384-well microplates and ERK 1/2 phosphorylation was determined using AlphaScreen®SureFire® kit (Perkin Elmer) following the instructions of the supplier and using an EnSpire® Multimode Plate Reader (PerkinElmer, Waltham, MA, United States). […]
# CB1R [5] = test system: T4, CB1R; assay: as above; type: cell-based, human; details: HEK-293T cells expressing CB1R
# T4 construct: expressed in transfected cells; host or cells: HEK-293T, transient transfection (PEI)
# Protocol: as §1, §3, §4
# [6] = test system: T2, CB1R and CB2R (CB1–CB2 heteroreceptor complexes); assay: cAMP determination in HEK-293T cells co-expressing both receptors; type: cell-based, human
# Protocol: as §1
# Signaling experiments have been performed as previously described ([Navarro et al., 2010], [2016], [2018b]; [Hinz et al., 2018]). Two hours before initiating the experiment, HEK-293T cell-culture medium was replaced by serum-starved DMEM medium. Then, cells were detached, resuspended in growing medium containing 50 μM zardaverine and placed in 384-well microplates (2,500 cells/well). Cells were pretreated (15 min) with CBG -or vehicle- and stimulated with agonists (15 min) before adding 0.5 μM forskolin or vehicle. Readings were performed after 15 min incubation at 25°C. […] Fluorescence at 665 nm was analyzed in a PHERAstar Flagship microplate reader equipped with an HTRF optical module (BMG Lab Technologies, Offenburg, Germany).
# experimental colitis = test system: experimental colitis; parameters: method as in Borrelli et al., 2013; details: model of inflammatory bowel disease; ref Borrelli et al., 2013; cited from earlier work
# SNAP-CB2R = target: T5, SNAP-CB2R (Homo sapiens, UniProt P34972); assay: Homogeneous HTRF competition binding in living HEK-293T cells (fluorophore-conjugated CM-157); details: living HEK-293T cells expressing SNAP-CB2R, 20 nM fluorescent ligand
# T5 construct: host or cells: HEK-293T, transient transfection (PEI)
# α2-adrenoceptor = test system: α2-adrenoceptor; parameters: method as in Cascio et al., 2010; details: ref Cascio et al., 2010; read-out: EC50 as α2-adrenoceptor agonist; cited from earlier work
# CB2R [7] = test system: T3, CB2R; assay: ERK1/2 phosphorylation in HEK-293T cells; type: cell-based, human
# Protocol: as §1, §2
# CB1R [8] = test system: T4, CB1R; assay: ERK1/2 phosphorylation in HEK-293T cells; type: cell-based, human
# Protocol: as §1, §2
# [9] = 100 nM CBG pretreatment, cells co-expressing CB1R and CB2R
# [10] = CBG alone, dose-effect, cells expressing CB1R and CB2R
# T1 sequence (P21554 whole entry): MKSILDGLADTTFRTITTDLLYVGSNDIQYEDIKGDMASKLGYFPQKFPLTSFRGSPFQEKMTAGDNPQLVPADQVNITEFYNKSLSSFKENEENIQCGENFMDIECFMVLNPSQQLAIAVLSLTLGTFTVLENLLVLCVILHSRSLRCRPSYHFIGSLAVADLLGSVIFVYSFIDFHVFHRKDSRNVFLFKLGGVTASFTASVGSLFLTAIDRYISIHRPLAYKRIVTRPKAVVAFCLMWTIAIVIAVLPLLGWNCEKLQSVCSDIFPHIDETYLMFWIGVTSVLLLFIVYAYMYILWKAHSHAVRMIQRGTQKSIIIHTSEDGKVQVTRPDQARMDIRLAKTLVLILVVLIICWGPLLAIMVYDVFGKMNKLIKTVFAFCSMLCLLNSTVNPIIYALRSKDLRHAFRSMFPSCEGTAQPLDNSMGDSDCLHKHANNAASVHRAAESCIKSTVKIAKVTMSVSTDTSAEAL
# T5 sequence (P34972 whole entry): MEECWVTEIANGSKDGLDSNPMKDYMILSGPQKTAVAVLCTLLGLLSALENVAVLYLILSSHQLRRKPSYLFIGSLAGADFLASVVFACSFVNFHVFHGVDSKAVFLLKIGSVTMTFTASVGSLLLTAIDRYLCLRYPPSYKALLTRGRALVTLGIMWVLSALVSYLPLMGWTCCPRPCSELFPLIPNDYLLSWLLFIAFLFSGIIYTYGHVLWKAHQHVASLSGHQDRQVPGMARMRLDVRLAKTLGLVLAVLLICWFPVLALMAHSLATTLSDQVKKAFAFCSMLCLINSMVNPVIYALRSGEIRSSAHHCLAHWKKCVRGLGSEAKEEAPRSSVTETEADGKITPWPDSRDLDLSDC
structure (smiles),measurement,setting,value
"CCCCCc1cc(O)c(C/C=C(\C)CCC=C(C)C)c(O)c1 [CBG, cannabigerol]",Effect on PPARγ transcriptional activity,[1],may enhance the PPARγ transcriptional activity
same,Ki,AEA cell uptake,11300 nM
same,Ki,"CB1R [2]; membranes from mice brain, preliminary results, ref Gauson et al., 2007, Pertwee, 2008",300 to 500 nM
same,Ki,"CB1R [2]; mouse brain membranes, ref Cascio et al., 2010",381 nM
same,"Displacement of [3H]-WIN-55,212-2 from CB1R",human CB1 receptor,not able to displace the radioligand; also recorded: unable to compete
same,Ki,human CB1 receptor,> 30000 nM
same,Effect on agonist actions on ERK1/2 phosphorylation,[3]; [9],negligible except for the negative modulation of the ACEA effect on ERK1/2 phosphorylation
same,Effect on ERK1/2 phosphorylation,[3]; [10],negative cross-talk was still evident
same,Nitrite release from macrophages after LPS stimulation,macrophages,reduce
same,Pharmacological profile at CB2R,CB2R [4],partial agonist of the CB2R
same,Pharmacological profile at CB1R,CB1R [5],poor agonist of CB1R
same,"Effect on AEA, ACEA and/or JWH133 actions in cAMP-related assays",[6]; [9],"significant effects, always reducing the effect of the agonists"
same,Effect on cAMP level,[6]; [10],additive
same,Effect on experimental colitis,experimental colitis,reduce the histological and molecular changes of experimental colitis
same,Ki,SNAP-CB2R,152 nM
same,EC50,α2-adrenoceptor,0.2 nM
same,Effect on AEA and JWH133 effects on ERK1/2 phosphorylation,"CB2R [7]; 100 nM or 1 μM CBG pretreatment, 100 nM AEA or JWH133, CB2R",reduced the effects of AEA and JWH133
same,Activation of the MAP kinase pathway,"CB2R [7]; CBG alone, 1 nM to 10 μM, CB2R-expressing cells",notable
same,Effect on agonist-induced MAPK phosphorylation,"CB1R [8]; 100 nM or 1 μM CBG, 100 nM AEA or ACEA, CB1R",unable to modify
same,Effect on MAPK phosphorylation,"CB1R [8]; CBG alone, 1 nM to 10 μM, CB1R-expressing cells",no significant action
